This is an account of results in patent US20220062340A1, “IMMUNOTHERAPEUTIC METHODS AND COMPOSITIONS” (KING'S COLLEGE LONDON, priority 2018, published 2022).

pEC50: −log10 of the molar value.

Data set [1] deals with Tregs from CD patients. Briefly: Gene array of expanded Tregs from CD patients. The class given is cell-based, human. The procedure: Gene array analyses were carried out using Partek® software with a 1-way ANOVA to assess for differential gene expression.
1) RNA extraction was performed using Qiagen RNEasy mini/micro kits as per manufacturer's instructions. The samples were checked for RNA quality using the Agilent 2100 Bioanalyzer and quantified using the Nanodrop (ND-1000 Spectrophotometer). Samples which passed QC (RIN>8) were chosen such that input amount of each sample was 3 ng.
2) SPIA cDNA was generated using the “Ovation Pico WTA System V2” kit from Nugen, following the manufacturer's instructions.
3) The SPIA cDNA was subjected to a QC check to assess quality (Agilent 2100 Bioanalyzer) and quantity (Nanodrop ND-1000 Spectrophotometer) for the next stage.
4) The SPIA cDNA was fragmented and Biotin-labelled using the “Encore Biotin Module” from Nugen according to the manufacturer's instructions and passed through QC checks to assess fragmentation size (Agilent 2100 Bioanalyzer).
6) Hybridization cocktails were prepared of the fragmented labelled-cDNA according to Nugen's recommendations and hybridized at 45° C. overnight in an oven.
7) The arrays were washed and stained using wash protocol FS450_0002 (Affymetrix protocol recommended for Human Gene 2.0 Arrays on the GeneChip Fluidics station 450.
8) The arrays were scanned using the Affymetrix GeneChip Scanner.
Gene expression analyses were performed on Tregs from CD patients expanded in the presence of Rapa+ATRA, Rapa+RAR568 or rapamycin only (n=3 in each group). […] CD161 has previously been described as a marker of T helper (Th) 17-like Tregs^32. This was not observed in the RAR568-treated group. […] IL-18 Receptor 1 and STAT4 are responsible for Th1 lineage commitment and IFNγ production, both have been independently identified as IBD disease related polymorphisms on GWAS^33-36. CD38 has been identified as a marker associated with mature T cells, signaling reduced proliferation, but an increased ability to produce pro-inflammatory cytokines such as IFNγ^37. Ligation of GPR174 negatively affects Treg accumulation and function^38. No clear difference in transcripts for canonical pathways were identified when ATRA treated cells were compared with RAR568 treated cells.
To assess for off target RARγ effects, we compared the gene expression profiles of RAR568 and ATRA treated cells to a published dataset of RARγ target genes^39. […] Given the efficacy at inducing α4β7 and lack of off target effects, RAR568 fulfilled the target product profile for an agent that could be used for ex vivo Treg expansion for cell-based therapy purposes. Therefore, we probed this effect of RAR568 on Tregs from CD patients in functional in vitro and in vivo trafficking assays.

Data set [2] concerns Ex vivo expanded Tregs. Briefly: IL-17 and IFNγ production under pro-inflammatory cytokine challenge (ELISA). The class given is cell-based, human. To be noted: Tregs expanded ex vivo in the presence of the agonist, FIG. 2f. The procedure: Cytokine concentrations were measured using the Ready-SET-Go sandwich ELISA kits from eBioscience.
Ex vivo expanded Tregs were activated with CD3/CD28 beads at a 1:20 ratio and cultured at 10^6cells/m1 in X-VIVO for 5 days at 37° C./5% CO2, supplemented with the following cytokine cocktail: A) IL-2 (10 IU/mL, Proleukin); (B) IL-2, IL-1 (10 ng/mL), IL-6 (4 ng/mL) and transforming growth factor-β (TGF-β (5 ng/mL), IL-21 (25 ng/mL), IL-23 (25 ng/mL) (all R&D Systems). Supernatant IL-17 and interferon gamma (IFNγ) concentrations were measured by ELISA.
For orientation: In an ELISA, binding on a coated surface is turned into a signal by an enzyme label.

Data set [3] deals with FOXP3 in Tregs. In words: FOXP3 expression of ex vivo expanded Tregs. To be noted: Tregs expanded in the presence of the agonist. It is filed as cell-based, human. The procedure: (§1) FACS-sorted Treg populations were plated at 1×10^6 or 0.5×10^6 in X-VIVO-15 medium and activated with anti-CD3/anti-CD28 coated beads (Dynabeads®, Invitrogen, Paisley, UK) at 1:1 bead: cell ratio. Rapamycin was added at day 0 of culture at a final concentration of 100 nM/L +/−ATRA 1 nM/L or RAR568 1 nM/L. Next, 1,000 IU/ml recombinant human IL-2 (rhlL-2) (Proleukin®, Novartis, Camberley, UK) was added at day 5 of culture. Cells were re-stimulated every 10-12 days and expanded for a total of 24-30 days. The phenotype and suppressive ability were assessed at the end of the culture period.
(§2) Flow cytometry panels have been designed to assess the subtypes of regulatory T cells in patients with CD as well as their expression of gut homing molecules. Gating was performed based on natural populations when assessing for CD4^+CD25^highCD127low populations, as well as for CD45RA^+ Treg populations. Additionally, to minimize bias in the assessment of expression of gut homing markers and transcription factors, a fluorochrome minus one (FMO) panel was added for each marker of interest in each experiment that was performed.

In data set [4] the test system is integrin β7 on Tregs. Briefly: Dose response of integrin β7 induction on expanded Tregs. It is filed as cell-based. The following applies: Homo sapiens; Tregs in in vitro culture, FIG. 2c; read-out: EC50 to induce the expression of integrin β7. The procedure:
as §1, §2

Data set [5] deals with integrin α4β7 on Tregs. In words: α4β7 expression on ex vivo expanded CD45RA+ Tregs from CD patients (flow cytometry). The class given is cell-based, human. The following applies: CD4+CD25hiCD127loCD45RA+ Tregs cultured with rapamycin and high dose IL-2 plus the agonist; mean ± SD. The procedure: “Complete X-VIVO-15” (Lonza, Walkersville, MD) was used for ex vivo Treg expansion, Treg cytokine challenge experiments and Treg suppression assays. This was supplemented with 100 nM or 10 nM Rapamycin and all-trans retinoic acid (ATRA) 2 μM or 1 nM, or Rapamycin and RAR568 1 nM.
as §1
Flow cytometry panels have been designed to assess the subtypes of regulatory T cells in patients with CD as well as their expression of gut homing molecules. Gating was performed based on natural populations when assessing for CD4^+CD25^highCD127low populations, as well as for CD45RA^+ Treg populations. Additionally, to minimize bias in the assessment of expression of gut homing markers and transcription factors, a fluorochrome minus one (FMO) panel was added for each marker of interest in each experiment that was performed. […]
(In general: A flow cytometer gives signals particle by particle.)

Data set [6] concerns Effector T cells (Teff). In words: Treg suppression assay (proliferation of CFSE-labelled Teff). To be noted: lowest (8:1) Teff:Treg titration, FIG. 2e. The class given is cell-based, human. The procedure:
Effector T cells (Teff) were labelled with carboxyfluorescein succinimidyl ester (CFSE, Invitrogen) according to standard protocols. Cells were washed with phosphate buffered saline (PBS) to remove excess protein. Cells were then incubated with a 1 μM/L CFSE solution in the dark at room temperature for 4 minutes. The reaction was then quenched with 9 ml of complete medium.
Teff were activated with anti-CD3/anti-CD28 micro beads at a bead: Teff ratio of 0.02:1. 1×10^5 Teff were then cultured either alone or with Tregs in serial dilutions. The ratios of Teff: Treg were 1:1, 2:1, 4:1, and 8:1. This was done in X-VIVO-15 and proliferation rates were assessed by flow cytometry after 5 days of incubation.
Percentage suppression (S) of proliferation was calculated using the following formula:
Where c=percentage of proliferating precursors in the presence of Tregs and d=percentage of proliferating precursors in the absence of Tregs.

The test system of data set [7] is integrin α4β7 on Treg surface. Briefly: Induction of integrin α4β7 on bulk Treg surface by RARα agonists (FIG. 6). The class given is cell-based. The following applies: bulk CD4+CD25+CD127− Tregs, 12 days stimulation, reducing agonist concentrations. The procedure: Bulk Tregs (CD4+CD25+CD127−) Tregs (50,000 per well) were expanded in vitro with reducing concentrations of the agonists. Culture conditions: 2 aCD3/aCD28 beads/cell, 1000IU/mL IL-2, 0.1 nM Rapamycin+Agonist in X-vivo 15. Following 12 days stimulation, cells were stained for CD4, CD25, CD127, FOXP3, Integrin a4, Integrin b7, CD15s, CD161 and acquired on a BD symphony flow cytometer. Data was analysed in Flowjo and Prism.

Data set [8] concerns MAdCAM-1. In words: In-vitro trafficking assay, MAdCAM-1 coated Ibidi flow chamber. It is filed as cell-based, human. To be noted: cells treated with monoclonal antibody to integrin α4β7, FIG. 4. The procedure: Ibidi (Martinsreid, Germany) μ-Slides VI″ were coated with recombinant human MAdCAM-1 (R&D Systems, Minneapolis, Minn.), at a concentration of 10μg/ml and incubated overnight. Cells from two CD patients that had previously undergone ex vivo expansion under two parallel conditions (Rapa and Rapa+RAR568) and had been frozen in liquid nitrogen were defrosted and rested overnight. Rested cells were then activated with rhCCL25 (R&D systems) and passed through the coated Ibidi flow chamber at a rate of 1 dyne/cm^2. The total number of cells, as well as those rolling, adherent and crawling was quantified from six randomly selected fields of view per treatment.
In order to assess the physiological relevance of the induction of α4β7 expression by RAR568, treated and untreated Tregs from CD patients were passed through a MAdCAM-1 coated flow chamber (FIG. 10). The total number of cells adherent to the chamber, as well as their stages of rolling, adhesion and crawling, were compared to cells that were expanded under standard conditions.

For `CC1=C(/C=C/C(C)=C/C=C/C(C)=C/C(=O)O)C(C)(C)CCC1` [ATRA, all-trans retinoic acid, reference compound], the “transcripts for CD161” value in data set [1] (compared to rapamycin only, n=3) is “significant increase”. For the same compound, in data set [1] (compared to rapamycin only, p<0.05, FIG. 3a), the “increase in the expression of STAT4, IL18R1, CD38 and GPR174” value is more than 2 fold. The “RARγ target genes upregulated” value in data set [1] (off target RARγ effects, compared to published dataset, FIG. 3b) is recorded as “Eleven”. For the same compound, in data set [2], the “IFNγ production following pro-inflammatory cytokine challenge” value was “did not produce” and the “IL-17 production following pro-inflammatory cytokine challenge” value was “did not produce”. Moreover, the “FOXP3 expression of expanded Tregs” value in data set [3] (mean ± SD) was found to be 86.15±19.88%. The “FOXP3 expression, range” value in data set [3] (range) is 40.2-99.7. Also, the pEC50 in data set [4] was 8.82. Also, the “α4β7 expression of expanded Tregs” value in data set [5] worked out at 74.21±25.89. Further, the “Suppressive ability of expanded Tregs” value in data set [6] is recorded as “became less suppressive at the lowest titration”.

Consider `CC1(C)CCC(C)(C)c2cc(NC(=O)c3ccc(C(=O)O)cc3)ccc21` [AM80, tamibarotene], for which the “induction of integrin α4β7 on Treg surface” value in data set [7] is given as “comparable effects”.

Regarding `CC1(C)CCC(C)(C)c2cc(C(=O)Nc3ccc(C(=O)O)cc3)ccc21` [AM580], the “induction of integrin α4β7 on Treg surface” value in data set [7] is on record as “comparable effects”.

For the compound “Vedolizumab: monoclonal antibody to integrin α4β7”, in data set [8], the “cell migration of RAR568-treated Tregs in MAdCAM-1 coated flow chamber” value is reported as “All stages of cell migration were blocked”.

As a reminder, the pEC50 is the EC50 on a negative log10 scale, so that one unit is a factor of ten.
